Measured values from patent publication US20230002387A1, “2-AMINO-S6-SUBSTITUTED THIOPURINE COMPOUNDS AS INHIBITORS OF THE ENPP1 PROTEIN” (ATEN PORUS LIFESCIENCES PVT. LTD., priority 2019, published 2023).

Tests used:
[1] = biological target: T1, ENPP1 (Homo sapiens, UniProt P22413); assay: Capillary electrophoresis-based NPP assay with ATP as a substrate (ENPP1 inhibition, Ki); type: biochemical; details: Ki from IC50 by Cheng-Prusoff, 400 μM ATP
T1 sequence (P22413 1-925): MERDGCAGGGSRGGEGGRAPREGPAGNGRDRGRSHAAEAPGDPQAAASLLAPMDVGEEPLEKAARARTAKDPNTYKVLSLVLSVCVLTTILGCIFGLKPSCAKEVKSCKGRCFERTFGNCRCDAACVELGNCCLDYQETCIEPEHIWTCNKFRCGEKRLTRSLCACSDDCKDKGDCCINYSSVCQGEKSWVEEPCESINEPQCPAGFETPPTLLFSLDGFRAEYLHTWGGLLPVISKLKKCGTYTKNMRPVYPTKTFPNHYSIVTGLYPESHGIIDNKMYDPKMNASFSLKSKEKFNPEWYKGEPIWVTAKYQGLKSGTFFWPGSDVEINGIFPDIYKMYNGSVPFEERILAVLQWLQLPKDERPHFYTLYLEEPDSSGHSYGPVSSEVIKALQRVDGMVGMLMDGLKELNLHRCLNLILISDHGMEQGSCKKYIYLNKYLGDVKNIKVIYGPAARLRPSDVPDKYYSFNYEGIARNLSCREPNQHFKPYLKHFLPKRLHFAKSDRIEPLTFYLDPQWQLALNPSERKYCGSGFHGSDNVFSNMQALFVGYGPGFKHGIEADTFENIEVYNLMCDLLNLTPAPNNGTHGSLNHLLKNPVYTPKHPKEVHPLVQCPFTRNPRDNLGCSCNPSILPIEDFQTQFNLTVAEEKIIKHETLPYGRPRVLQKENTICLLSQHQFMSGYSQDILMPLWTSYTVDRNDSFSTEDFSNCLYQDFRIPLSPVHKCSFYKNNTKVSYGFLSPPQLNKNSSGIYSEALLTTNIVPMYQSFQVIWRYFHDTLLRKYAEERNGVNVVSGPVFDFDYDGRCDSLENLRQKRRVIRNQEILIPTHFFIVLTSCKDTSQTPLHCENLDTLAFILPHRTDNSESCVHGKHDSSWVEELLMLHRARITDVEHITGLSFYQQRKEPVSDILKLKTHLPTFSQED
Procedure: Here, a Capillary Electrophoresis based method was used to determine the IC50 values for ENPP1 Inhibitors for ENNP1 protein.
The inhibitors synthesized were assessed for ENPP1 inhibitory potency against the natural substrate ATP. The enzyme inhibition assays were performed in 10 mM 2-(N-cyclohexylamino)-ethanesulfonic acid (CHES) buffer (pH 10.0) including 1 mM MgCl2, 2 mM CaCl2), and 400 μM of ATP, with different inhibitor concentrations. The reaction mixture was incubated with 20 ng human NPP1 at 37° C. for 30 min in a final volume of 100 μL, and the reactions were stopped by heating at 90° C. for 3 min. Finally, the reaction mixtures were directly measured by capillary electrophoresis (CE). The CE instrumentation and operating conditions were as follows: P/ACE MDQ capillary electrophoresis system (Beckman Instruments, Fullerton, Calif., USA) with a DAD detection system, polyacrylamide-coated capillaries of 40 cm effective length×[…] (id) obtained from CS Chromatographie GmbH (Langerwehe, Germany), 50 mM phosphate buffer (pH 6.5) as running buffer, electrokinetic injection (−6 kV, 60 s), separation voltage of −15 kV. The amounts of AMP produced were measured at 260 nm. Data collection and peak area analysis were performed by 32 Karat software obtained from Beckman Coulter (Fullerton, Calif., USA).
The IC50 values of test compounds were calculated by plotting data in the program Prism 5.0, and the Ki values were calculated from the IC50 values with the Cheng-Prusoff equation (Tables 2-4).

[2] = system: LLC1 syngeneic tumor; assay: In vivo efficacy in LLC1 syngeneic tumor model (murine Lewis lung carcinoma); set-up: species or system C57BL/6 mice; details: for % TGI (vs Control): Day 15; for Tumor volume (mm^3), Mean, Day 15: SE in next cell; for Reduction of tumor volume compared among the dosing groups of the compound: IV dosing in combination with anti-PD-1 antibody (FIG. 4, 7, 10); for Effect on tumor volume in the murine Lewis lung carcinoma model: PO and IV dosing, alone or in combination with anti-PD-1 antibody (FIG. 4, 7, 10); for Tumor volume (mm^3), Mean ± SE, Day 1: baseline at start of treatment
Procedure: The anti-tumor efficacy of Compound 155, 173 and 174 was evaluated in combination with an anti-PD-1 antibody (check point inhibitor) in LLC1, a syngeneic tumor model. Compounds were administered orally at a dose of 100 mg/kg, once daily. IV doses of the compound were administered at 10 mg/kg dose, twice weekly or Q3D (Compound 155 at 2 mg/Kg IV). Anti-PD-1 antibody was administered at a dose of 200 μg/animal via IP route on days 1, 5 and 9 (Table 5).
C57BL/6 mice (female, 7-8 weeks of age) were implanted subcutaneously with 0.2×10^6 LLC1 cells (ATCC® CRL-1642^Tm) to evaluate tumor growth in a murine Lewis lung carcinoma model. Tumor-bearing animals were randomized into different treatment groups of 8 animals based on tumor size criteria of about 50-60 mm^3 and dosed according to the schedule in Table 5.
Dosing protocol: The frequency for oral administration was once daily and IV administration was twice weekly for two weeks; anti-PD-1 antibody was administered via IP route on Days 1, 5 and 9.
Tumor measurement: Tumor growth was measured thrice weekly using a digital Vernier caliper. Tumor volume was calculated as: Tumor Volume (TV)=[Length (L)×Width (W)2]/2 (where length is the largest diameter and width is the smallest diameter of the tumor)
Efficacy Evaluation: Tumor growth inhibition (TGI) was calculated as: […]
Data Analysis: Statistical analysis of the data was performed by One-way ANOVA followed by Dunnett's test using GraphPad Prism (version 5.03).

[3] = IV 2 mg/kg twice weekly + anti-PD-1 200 μg/animal IP Q4D x 3
[4] = PO 100 mg/kg QD x 14 + anti-PD-1 200 μg/animal IP Q4D x 3
[5] = IV 10 mg/kg twice weekly + anti-PD-1 200 μg/animal IP Q4D x 3
[6] = IV 10 mg/kg twice weekly, alone

Nc1nc(SCC(=O)Nc2ccc(O)c(C(=O)O)c2)c2[nH]cnc2n1 [Compound 155]
Ki ([1]; bin of Table 2): ≤ 100 nM | % TGI (vs Control) [2, 3]: 57% | Tumor volume (mm^3), Mean, Day 15 [2, 3]: 787 mm^3 | % TGI (vs Control) ([2]; IV 2 mg/kg twice weekly, alone): 47% | Tumor volume (mm^3), Mean, Day 15 ([2]; IV 2 mg/kg twice weekly, alone): 956 mm^3 | Reduction of tumor volume compared among the dosing groups of the compound [2]: greatest reduction | % TGI (vs Control) [2, 4]: 44% | Tumor volume (mm^3), Mean, Day 15 [2, 4]: 1008 mm^3 | % TGI (vs Control) ([2]; PO 100 mg/kg QD x 14, alone): 33% | Tumor volume (mm^3), Mean, Day 15 ([2]; PO 100 mg/kg QD x 14, alone): 1191 mm^3 | Effect on tumor volume in the murine Lewis lung carcinoma model [2]: reduced tumor volume | Tumor volume (mm^3), Mean ± SE, Day 1 ([2]; IV 2 mg/kg + anti-PD-1 group): 50 ± 1.4 mm^3 | Tumor volume (mm^3), Mean ± SE, Day 1 ([2]; IV 2 mg/kg alone group): 51 ± 2.0 mm^3 | Tumor volume (mm^3), Mean ± SE, Day 1 ([2]; PO 100 mg/kg + anti-PD-1 group): 50 ± 1.4 mm^3 | Tumor volume (mm^3), Mean ± SE, Day 1 ([2]; PO 100 mg/kg alone group): 50 ± 1.4 mm^3

CCC(Sc1nc(N)nc2nc[nH]c12)C(=O)Nc1ccc(O)c(OC)c1 (centres unmarked) [Compound 174]
% TGI (vs Control) [2, 5]: 57% | Tumor volume (mm^3), Mean, Day 15 [2, 5]: 778 mm^3 | % TGI (vs Control) [2, 6]: 48% | Tumor volume (mm^3), Mean, Day 15 [2, 6]: 930 mm^3 | Reduction of tumor volume compared among the dosing groups of the compound [2]: greatest reduction | % TGI (vs Control) [2, 4]: 60% | Tumor volume (mm^3), Mean, Day 15 [2, 4]: 724 mm^3 | % TGI (vs Control) ([2]; PO 100 mg/kg QD x 14, alone): 52% | Tumor volume (mm^3), Mean ± SE, Day 1 ([2]; IV 10 mg/kg + anti-PD-1 group): 50 ± 1.2 mm^3 | Tumor volume (mm^3), Mean ± SE, Day 1 ([2]; IV 10 mg/kg alone group): 50 ± 1.1 mm^3 | Tumor volume (mm^3), Mean ± SE, Day 1 ([2]; PO 100 mg/kg + anti-PD-1 group): 50 ± 1.2 mm^3 | Tumor volume (mm^3), Mean ± SE, Day 1 ([2]; PO 100 mg/kg alone group): 50 ± 1.3 mm^3

COc1ccnc(NC(=O)[C@H](Sc2nc(N)nc3nc[nH]c23)C(C)C)n1 [Compound 511]
Ki ([1]; bin of Table 2): ≤ 100 nM

Nc1nc(SCC(=O)Nc2ccc(O)c(Br)c2)c2[nH]cnc2n1 [Compound 194]
Ki ([1]; bin of Table 2): ≤ 100 nM

COc1ccnc(NC(=O)C(C)(C)Sc2nc(N)nc3nc[nH]c23)n1 [Compound 504]
Ki ([1]; bin of Table 2): ≤ 100 nM

CCOc1nc(NC(=O)[C@@H](CC)Sc2nc(N)nc3nc[nH]c23)ncc1Br [Compound 712]
Ki ([1]; bin of Table 2): ≤ 100 nM

COc1ccc(NC(=O)[C@H](C)Sc2nc(N)nc3nc[nH]c23)nc1OC [Compound 491]
Ki ([1]; bin of Table 2): ≤ 100 nM

COc1cc(NC(=O)C(C)Sc2nc(N)nc3nc[nH]c23)ccc1O (centres unmarked) [Compound 173]
Ki ([1]; bin of Table 2): ≤ 100 nM | % TGI (vs Control) [2, 5]: 53% | Tumor volume (mm^3), Mean, Day 15 [2, 5]: 856 mm^3 | % TGI (vs Control) [2, 6]: 48% | Tumor volume (mm^3), Mean, Day 15 [2, 6]: 926 mm^3 | Reduction of tumor volume compared among the dosing groups of the compound [2]: greatest reduction | % TGI (vs Control) [2, 4]: 47% | Tumor volume (mm^3), Mean, Day 15 [2, 4]: 945 mm^3 | % TGI (vs Control) ([2]; PO 100 mg/kg QD x 14, alone): 37% | Tumor volume (mm^3), Mean, Day 15 ([2]; PO 100 mg/kg QD x 14, alone): 1126 mm^3 | Effect on tumor volume in the murine Lewis lung carcinoma model [2]: reduced tumor volume | Tumor volume (mm^3), Mean ± SE, Day 1 ([2]; IV 10 mg/kg + anti-PD-1 group): 50 ± 1.4 mm^3 | Tumor volume (mm^3), Mean ± SE, Day 1 ([2]; IV 10 mg/kg alone group): 50 ± 1.3 mm^3 | Tumor volume (mm^3), Mean ± SE, Day 1 ([2]; PO 100 mg/kg + anti-PD-1 group): 50 ± 1.4 mm^3 | Tumor volume (mm^3), Mean ± SE, Day 1 ([2]; PO 100 mg/kg alone group): 50 ± 1.4 mm^3

Nc1nc(SCC(=O)Nc2ccc3c(c2)OCO3)c2[nH]cnc2n1 [Compound 78]
Ki ([1]; bin of Table 2): ≤ 100 nM

COc1cc(NC(=O)[C@H](CC(C)C)Sc2nc(N)nc3nc[nH]c23)ccc1O [Compound 272]
Ki ([1]; bin of Table 2): ≤ 100 nM

CC(C)Oc1ccnc(NC(=O)C(C)(C)Sc2nc(N)nc3nc[nH]c23)n1 [Compound 534]
Ki ([1]; bin of Table 2): ≤ 100 nM

Cc1ccc(S(N)(=O)=O)cc1NC(=O)Cn1cnc2ncnc(N)c21 [Compound 30]
Ki ([1]; bin of Table 4): ≥ 1000 nM

COc1ccc(NC(=O)CSc2nc(N)nc3nc[nH]c23)cc1 [Compound 107]
Ki ([1]; bin of Table 4): ≥ 1000 nM

COc1ccnc(NC(=O)[C@H](CCc2ccccc2)Sc2nc(N)nc3nc[nH]c23)n1 [Compound 506]
Ki ([1]; bin of Table 2): ≤ 100 nM

COc1ccnc(NC(=O)[C@@H](Cc2ccccc2)Sc2nc(N)nc3nc[nH]c23)n1 [Compound 516]
Ki ([1]; bin of Table 2): ≤ 100 nM

COc1ccnc(NC(=O)[C@@H](C)Sc2nc(N)nc3nc[nH]c23)n1 [Compound 486]
Ki ([1]; bin of Table 2): ≤ 100 nM

CCOc1ccc(NC(=O)CSc2nc(N)nc3nc[nH]c23)cc1OCC [Compound 84]
Ki ([1]; bin of Table 4): ≥ 1000 nM

CC(=O)c1cc(NC(=O)CSc2nc(N)nc3nc[nH]c23)ccc1O [Compound 199]
Ki ([1]; bin of Table 2): ≤ 100 nM

COc1ccc(NC(=O)CSc2nc(N)nc3nc[nH]c23)cc1C(=O)O [Compound 144]
Ki ([1]; bin of Table 4): ≥ 1000 nM

COc1ccc(NC(=S)CSc2nc(N)nc3nc[nH]c23)cc1OC [Compound 355]
Ki ([1]; bin of Table 2): ≤ 100 nM
